Literature values, collected in patent US20060078541A1, “Method and formula for stem cells' stimulation, targeting release, trafficking and homing” (priority 2004, published 2006).

Conditions: in vivo

[Cs+] [Cesium ions]
biological half life (human): 50-60 days | assimilated: ~100%
